Experimental data reported in patent publication US20230303540A1 (Merck Sharp & Dohme LLC, priority 2020, published 2023).

Target: GST-tagged truncated human mutant G2019S LRRK2 (Homo sapiens, UniProt Q5S007, G2019S)
Experiment: LRRK2 G2019S Km ATP LanthaScreen assay
Type: biochemical
Details: 134 μM ATP (Km ATP), LRRKtide substrate, mean IC50 values; read-out: LRRK2 pIC50 (converted)
Procedure, shortened: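 LanthaScreen TR-FRET read with fluorescein-LRRKtide and 134 μM ATP (Km) in Tris pH 8.5/10 mM MgCl2 buffer. The enzyme was preincubated 15 min with compound at room temperature, and the reaction ran 90 min at ambient temperature. Stopped with EDTA plus Tb anti-phospho-LRRKtide antibody; the 520/495 nm ratio gave a 4-parameter logistic IC50, mean of several runs.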

Row | Structure (SMILES) | IC50
1 | OC1COCC1N1CCN(c2cc3nc(Nc4cnn(C5CC5(F)F)c4Cl)ncc3cc2Cl)CC1 (single isomer, unassigned) [Ex-6.29, (3S,4S) or (3R,4R) 4-[4-(6-chloro-2-{[5-chloro-1-(2,2-(R) or (S)difluorocyclopropyl)-1H-pyrazol-4-yl]amino}quinazolin-7-yl)piperazin-1-yl)oxolan-3-ol] | 15.2 nM
2 | OC1CN(C2CCN(c3cc4nc(Nc5cnn(CC(F)F)c5Cl)ncc4cc3Cl)CC2)C1 [Ex-1.22, 1-[1-(6-chloro-2-{[5-chloro-1-(2,2-difluoroethyl)-1H-pyrazol-4-yl]amino}quinazolin-7-yl)piperidin-4-yl]azetidin-3-ol] | 6.94 nM
3 | CN(C)[C@@H]1CCN(c2cc3nc(Nc4cnn(CC(F)F)c4Cl)ncc3cc2Cl)C1 [Ex-1.23, 6-chloro-N-[5-chloro-1-(2,2-difluoroethyl)-1H-pyrazol-4-yl]-7-[(3R)-3-(dimethylamino)pyrrolidin-1-yl]quinazolin-2-amine] | 32.6 nM
4 | Cc1c(Nc2ncc3cc(Cl)c(N4CCC(C)(O)CC4)cc3n2)cnn1C(C)(C)C#N [Ex-6.15, 2-(4-{[6-chloro-7-(4-hydroxy-4-methylpiperidin-1-yl)quinazolin-2-yl]amino}-5-methyl-1H-pyrazol-1-yl)-2-methylpropanenitrile] | 3.57 nM
5 | OC1COCC1N1CCN(c2cc3nc(Nc4cnn(C5CC5(F)F)c4Cl)ncc3cc2Cl)CC1 (single isomer, unassigned) [Ex-6.31, (3S,4S) or (3R,4R) 4-[4-(6-chloro-2-{[5-chloro-1-(2,2-(R) or (S)difluorocyclopropyl)-1H-pyrazol-4-yl]amino}quinazolin-7-yl)piperazin-1-yl]oxolan-3-ol] | 17.9 nM
6 | Cc1c(Nc2ncc3cc(Cl)c(N4CCC(C)(O)CC4C)cc3n2)cnn1C1CC1 (single isomer, unassigned) [Ex-9.2, (2R,4S or 2S,4R, or 2S,4S, or 2R,4R)-1-(6-Chloro-2-((1-cyclopropyl-5-methyl-1H-pyrazol-4-yl)amino)quinazolin-7-yl)-2,4-dimethylpiperidin-4-ol] | 1.06 nM
7 | COCC12CC(n3cc(Nc4ncc5cc(Cl)c(N6CCC7(CCCO7)CC6)cc5n4)cn3)(C1)C2 [Ex-3.34, 6-chloro-N-{1-[3-(methoxymethyl)bicyclo[1.1.1]pentan-1-yl]-1H-pyrazol-4-yl}-7-(1-oxa-8-azaspiro [4.5]decan-8-yl)quinazolin-2-amine] | 0.594 nM
8 | FC1(F)CC(N2CCN(c3cc4nc(Nc5cnn(C6CC6)c5Cl)ncc4cc3Cl)CC2)C1 [Ex-4.71, 6-chloro-N-(5-chloro-1-cyclopropyl-1H-pyrazol-4-yl)-7-(4-(3,3-difluorocyclobutyl)piperazin-1-yl)quinazolin-2-amine] | 11.1 nM
9 | Cn1ncc(Nc2ncc3cc(Cl)c(N4CCN(C5COCC5O)CC4)cc3n2)c1Cl (single isomer, unassigned) [Ex-6.7, (3S,4S) or (3R,4R) 4-(4-{6-chloro-2-[(5-chloro-1-methyl-1H-pyrazol-4-yl)amino]quinazolin-7-yl}piperazin-1-yl)oxolan-3-ol] | 1.59 nM
10 | O[C@@H]1COC[C@@H]1N1CCN(c2cc3nc(Nc4cnn(C5CC5)c4Cl)ncc3cc2Cl)CC1 (single isomer, unassigned) [Ex-3.51, (3R,4R) or (3S,4S) 4-(4-{6-chloro-2-[(5-chloro-1-cyclopropyl-1H-pyrazol-4-yl)amino]quinazolin-7-yl}piperazin-1-yl)oxolan-3-ol] | 16.3 nM
11 | CC(C)(O)CN1CCN(c2cc3nc(Nc4cnn(C5CC5)c4Cl)ncc3cc2Cl)CC1 [Ex-1.31, 1-(4-{6-chloro-2-[(5-chloro-1-cyclopropyl-1H-pyrazol-4-yl)amino]quinazolin-7-yl}piperazin-1-yl)-2-methylpropan-2-ol] | 10.1 nM
12 | Cc1c(Nc2ncc3cc(Cl)c(N4CCN(C5(C)COCC5O)CC4)cc3n2)cnn1C1CC1(F)F (single isomer, unassigned) [Ex-6.42, (3S,4S) or (3R,4R) 4-[4-(6-chloro-2-{[1-(2,2-(R) or (S)difluorocyclopropyl)-5-methyl-1H-pyrazol-4-yl]amino}quinazolin-7-yl)piperazin-1-yl]-4-methyloxolan-3-ol] | 21.4 nM
13 | COCC12CC(n3cc(Nc4ncc5cc(Cl)c(N6C[C@H]7CC[C@@H](C6)[C@@]7(C)O)cc5n4)cn3)(C1)C2 [Ex-3.31, (8-syn)-3-[6-chloro-2-({1-[3-(methoxymethyl)bicyclo[1.1.1]pentan-1-yl]-1H-pyrazol-4-yl}amino)quinazolin-7-yl]-8-methyl-3-azabicyclo[3.2.1]octan-8-ol] | 2.08 nM
14 | Cc1cc2cnc(Nc3cnn(C4CC4)c3Cl)nc2cc1N1CCN(C2COCC2O)CC1 (single isomer, unassigned) [Ex-5.8, (3S,4S) or (3R,4R) 4-(4-{2-[(5-chloro-1-cyclopropyl-1H-pyrazol-4-yl)amino]-6-methylquinazolin-7-yl}piperazin-1-yl)oxolan-3-ol] | 0.17 nM
15 | O=C1COCC12CCN(c1cc3nc(Nc4cnn(C5CC5)c4Cl)ncc3cc1Cl)CC2 [Ex-3.36, 8-{6-chloro-2-[(5-chloro-1-cyclopropyl-1H-pyrazol-4-yl)amino]quinazolin-7-yl}-2-oxa-8-azaspiro[4.5]decan-4-one] | 3.02 nM
16 | Cc1cc2cnc(Nc3cnn(C4CC4(F)F)c3Cl)nc2cc1N1CCN([C@H]2COC[C@H]2O)CC1 (single isomer, unassigned) [Ex-5.1, (3S, 4S) or (3R, 4R) 4-(4-(2-((5-Chloro-1-(2,2-(R) or (S)difluorocyclopropyl)-1H-pyrazol-4-yl)amino)-6-methylquinazolin-7-yl)piperazin-1-yl)tetrahydrofuran-3-ol] | 0.105 nM
17 | Cn1ncc(Nc2ncc3ccc(N4C(=O)C5CCC4C5)cc3n2)c1C(F)(F)F (single isomer, unassigned) [Ex-4.5, 2-(2-{[1-methyl-5-(trifluoromethyl)-1H-pyrazol-4-yl]amino}quinazolin-7-yl)-2-azabicyclo[2.2.1]heptan-3-one] | 7.26 nM
18 | Cc1c(Nc2ncc3cc(Cl)c(N4CCN(C5COCC5O)CC4)cc3n2)cnn1C (single isomer, unassigned) [Ex-6.24, (3S,4S) or (3R,4R) 4-(4-{6-chloro-2-[(1,5-dimethyl-1H-pyrazol-4-yl)amino]quinazolin-7-yl}piperazin-1-yl)oxolan-3-ol] | 0.603 nM
19 | C[C@]1(O)[C@@H]2CC[C@H]1CN(c1cc3nc(Nc4cnn(C56CC(C5)C6)c4Cl)ncc3cc1Cl)C2 [Ex-3.38, (8-syn)-3-(2-{[1-(bicyclo[1.1.1]pentan-1-yl)-5-chloro-1H-pyrazol-4-yl]amino}-6-chloroquinazolin-7-yl)-8-methyl-3-azabicyclo[3.2.1]octan-8-ol] | 6.62 nM
20 | CC1CN(c2cc3nc(Nc4cnn(C5CC5)c4Cl)ncc3cc2Cl)CCN1C1COCC1O (single isomer, unassigned) [Ex-12.7, (3S,4S) or (3R, 4R)-4-((R) or (S)-4-(4-(6-chloro-2-((5-chloro-1-cyclopropyl-1H-pyrazol-4-yl)amino)quinazolin-7-yl)-2-methylpiperazin-1-yl)tetrahydrofuran-3-ol] | 4.36 nM
21 | CC1CCN1c1cc2nc(Nc3cnn(C4CCN(C5(C)COC5)CC4)c3)ncc2cc1Cl (stereo not shown) [Ex-4.11, 6-chloro-7-(2-methylazetidin-1-yl)-N-{1-[1-(3-methyloxetan-3-yl)piperidin-4-yl]-1H-pyrazol-4-yl}quinazolin-2-amine] | 35.3 nM
22 | OC1COCC1N1CCN(c2cc3nc(Nc4cnn(C5CC5(F)F)c4Cl)ncc3cc2Cl)CC1 (single isomer, unassigned) [Ex-6.27, (3S,4S) or (3R,4R) 4-[4-(6-chloro-2-{[5-chloro-1-(2,2-(R) or (S)difluorocyclopropyl)-1H-pyrazol-4-yl]amino}quinazolin-7-yl)piperazin-1-yl]oxolan-3-ol] | 0.27 nM
23 | CC1(N2CCN(c3cc4nc(Nc5cnn(C6CC6)c5Cl)ncc4cc3Cl)CC2)COCC1O (single isomer, unassigned) [Ex-1.46, (3S,4S or 3R,4R)-4-(4-{6-chloro-2-[5-chloro-1-cyclopropyl-1H-pyrazol-4-yl)amino]quinazolin-7-yl}piperazin-1-yl)-4-methyloxolane-3-ol] | 0.625 nM
24 | FC12CC(n3ncc(Nc4ncc5cc(Cl)c(N6CCNCC6)cc5n4)c3Cl)(C1)C2 [Ex-6.55, 6-chloro-N-(5-chloro-1-(3-fluorobicyclo[1.1.1]pentan-1-yl)-1H-pyrazol-4-yl)-7-(piperazin-1-yl)quinazolin-2-amine] | 2.11 nM
25 | Clc1cc2cnc(Nc3cnn(C4CC4)c3Cl)nc2cc1N1CCc2[nH]ncc2C1 [Ex-3.25, 6-chloro-N-(5-chloro-1-cyclopropyl-1H-pyrazol-4-yl)-7-(1,4,6,7-tetrahydro-5H-pyrazolo[4,3-c]pyridin-5-yl) quinazolin-2-amine] | 1.21 nM
26 | CN1CCC2(CCN(c3cc4nc(Nc5cnn(C6(C)CC6)c5Cl)ncc4cc3Cl)C2)C1 (stereo not shown) [Ex-4.42, 6-chloro-N-[5-chloro-1-(1-methylcyclopropyl)-1H-pyrazol-4-yl]-7-(7-methyl-2,7-diazaspiro[4.4]nonan-2-yl)quinazolin-2-amine] | 6.55 nM
27 | Cn1ncc(Nc2ncc3ccc(N4C(=O)C5CCC4C5)cc3n2)c1C(F)F (single isomer, unassigned) [Ex-4.6, 2-(2-{[5-(difluoromethyl)-1-methyl-1H-pyrazol-4-yl]amino}quinazolin-7-yl)-2-azabicyclo[2.2.1]heptan-3-one] | 34.9 nM
28 | CCn1ncc(Nc2ncc3cc(Cl)c(N4CCC(C)(O)CC4)cc3n2)c1F [Ex-6.3, 1-{6-chloro-2-[(1-ethyl-5-fluoro-1H-pyrazol-4-yl)amino]quinazolin-7-yl}-4-methylpiperidin-4-ol] | 10.3 nM
